Where a SMILES comes first, the peptide text is derived from it. Bridges are numbered along the chain shown (N, C = ends).
Assays:
[1] = system: U-87 MG human glioblastoma cells; experiment: cells; settings: read-out: IC50 (μM) ± S.D.; U-87 MG, MTT, 72 h, 6000 cells/well, cyclotides 0.1-10 μM, TMZ 0.5-5000 μM, best fit nonlinear regression, triplicate wells, n = 3
Protocol: SH-SY5Y human neuroblastoma cells (population doubling (PD) 20−24), T-98G, and U-87 MG human glioblastoma cells were removed from cryogenic storage, thawed rapidly in a water bath (37 °C) and reconstituted in 75 cm^2 flasks. For SH-SY5Y, the following media were used: Dulbecco’s modified Eagle’s medium/Nutrient F12 Ham (Sigma-Aldrich, Cat. No. D8437) containing 10% heat-inactivated fetal bovine serum, 4 mM L-glutamine, 100 U/mL penicillin, and 100 μg/mL streptomycin. For U-87 MG and T-98G Eagle’s minimal essential medium (ATCC: The Global Bioresource Center, Cat. No. ATCC 30-2003), containing 10% heat-inactivated fetal bovine serum, 4 mM L-glutamine, 100 U/mL penicillin, and 100 μg/mL streptomycin were used.
Cells were incubated at 37 °C in a humidified atmosphere of 5% CO2 and 95% air until recovered and ready for passaging (approximately 4 days). At between 80% and 90% confluence, the cells were trypsinized with warm (37 °C) sterile 0.5% Trypsin-EDTA (Thermo Fisher, Cat. No. 15400054) and passaged into 175 cm^2 flasks, where they were left to multiply until they reached 80−90% confluence. To plate cells: cultures were trypsinized, resuspended in 20 mL sterile PBS, counted using a cell counter (Olympus cell counter model R1), and plated in 96-well plates at an optimal density of 6000 cells/well in the designated culture media. The cells were left to adhere overnight before treatment the following day, when the culture medium was removed and replaced with the treatment medium. All incubations were conducted in triplicate wells and repeated at least three times (n = 3).
To calculate TMZ IC50 values in each cell line, TMZ was dissolved in DMSO at a stock concentration of 103 mM, which was then diluted into culture medium on the day of use, with the DMSO final concentration always less than 0.1%. The following concentrations of TMZ were used in the experiments: 0.5, 5, 50, 500, 2500, 5000 μM. The media were sterilized for each treatment media with a 0.22 μm filter before they were added to cell cultures. To determine the IC50 values for each cyclotide in each cell type, cyclotides were dissolved into 10% DMSO and then dilutions used to screen cyclotides with a final DMSO concentration of less than 0.1% The following concentrations of cyclotides were used: 0.1, 1, 5, 10 μM. For co-exposure experiments, a simultaneous exposure of cyclotide and TMZ at each respective dose was added to cell cultures (100 μL final volume per well).
In accordance with the methods developed by Mosmann and colleagues, the MTT assay was conducted using the Roche cell proliferation kit (Cat. No. 11465007001). Briefly, cells that are active can cleave MTT. The MTT is originally a yellow tetrazolium salt that undergoes a colorimetric change to purple formazan crystals, and the change in absorbance can be measured as an indicator of cell viability/proliferation. For these experiments, cells were plated into 96-well flat-bottom plates, as described in the cell culture above. […] To align with our previous work, experiments were conducted with a 72 h time frame for cytotoxicity evaluation.
After a 72 h incubation period, plates were removed from the incubator and 10 µL of MTT was added to each well. The plates were returned to the incubator for an additional 4 h, after which 100 µL of a solubilization solution was added to each well. The plates were returned to incubation overnight, and the next day absorbances were read at 570 nm on a Molecular Devices FlexStation 3 using SoftMax Pro Microplate Data Acquisition and Analysis Software (version 7.0.2).

[2] = Human serum stability assay (UPLC-MS); settings: data points of 3 h, 8 h and 24 h; human serum from male AB plasma, 300 µM stock diluted 10 times, 37 °C, UPLC-MS peak area vs control, triplicate
Protocol: Established protocols were used to analyze peptide stability in human serum isolated from male AB plasma (Sigma-Aldrich). Briefly, thawed plasma was centrifuged for 10 min at 15,000× g to concentrate lipids. The supernatant was carefully removed with a Pasteur pipette and incubated for 15 min at 37 °C, 5% CO2. […] Controls were synthetic Kalata B1 or TMZ in PBS that were incubated in parallel with human serum test compounds. Serum proteins were denatured with urea (final concentration of 3M) at 4 °C for 10 min., at each time point. Afterwards, trichloroacetic acid (7% final v/v) was added for 10 min to precipitate the proteins. Each sample was centrifuged for 10 min at 15,000× g; the supernatant was removed an evaluated in triplicate using UPLC-MS.
We conducted peptide stability assays in human serum isolated from male AB plasma and then analyzed with UPLC-MS. Synthetic Kalata B1 and TMZ were incubated with human serum and the portion of the peptide remaining was quantified by calculating the area of the respective elution peak in UPLC-MS, compared to the control.
Percentage of Kalata B1 and TMZ remaining upon incubation with human serum. The portion of serum-treated peptide remaining was determined by calculating the area of the respective elution peak in UPLC-MS and comparing it with the control without incubation. Data points are means ± SEM.

[3] = cited from earlier work
Source text: One of our objectives is to promote research that investigates methods to decrease the required concentrations of drugs such as TMZ for efficacy in vivo. Therefore, it is important to analyze the stability of cyclotides in human serum. The trypsin inhibitor cyclotide, MCoTI-II, has been extracted from the seeds of Momordica cochinchinensis Spreng. [Cucurbitaceae]. […] Huang and colleagues repeated these experiments with MCoTI-II and an ...

glioblastoma cells = settings: cited from earlier work
U-87 MG cells = settings: cited from earlier work

CC[C@H](C)[C@@H]1NC(=O)[C@H](C)NC(=O)[C@H](CO)NC(=O)[C@H]([C@@H](C)O)NC(=O)[C@H](CC(C)C)NC(=O)[C@@H]2CSSC[C@@H]3NC(=O)[C@H](C(C)C)NC(=O)[C@H](CCCCN)NC(=O)[C@H](CO)NC(=O)[C@H](CCCCN)NC(=O)[C@@H]4CSSC[C@H](NC(=O)[C@H](CO)NC(=O)[C@H](CCC(=O)O)NC(=O)CNC(=O)[C@H](CSSC[C@H](NC(=O)CNC1=O)C(=O)N[C@@H](CO)C(=O)N4)NC(=O)[C@@H]1CCCN1C(=O)[C@H]([C@@H](C)CC)NC(=O)CNC(=O)[C@H](CC(N)=O)NC(=O)[C@H](CCCNC(=N)N)NC(=O)[C@H](Cc1ccc(O)cc1)NC3=O)C(=O)N[C@@H](C(C)C)C(=O)N[C@@H](Cc1c[nH]c3ccccc13)C(=O)N[C@@H]([C@@H](C)CC)C(=O)N1CCC[C@H]1C(=O)N2 [CyO3, Cycloviolacin O3] (cyclo(AIGCSCKSKVCYRNGIPCGESCVWIPCLTS); disulfide 4-18, 6-22, 11-27)
IC50 [1]: 2.6 ± 0.05 µM

CC[C@H](C)[C@@H]1NC(=O)[C@@H]2CSSC[C@@H]3NC(=O)[C@H](C(C)C)NC(=O)[C@H](CCCCN)NC(=O)[C@H](CO)NC(=O)[C@H](CCCCN)NC(=O)[C@@H]4CSSC[C@H](NC(=O)[C@H](CO)NC(=O)[C@H](CCC(=O)O)NC(=O)CNC(=O)[C@H](CSSC[C@H](NC(=O)CNC(=O)[C@H](C(C)C)NC(=O)[C@H](C(C)C)NC(=O)[C@H](CO)NC(=O)[C@H](CO)NC1=O)C(=O)N[C@@H](CO)C(=O)N4)NC(=O)[C@@H]1CCCN1C(=O)[C@H](CC(C)C)NC(=O)[C@H]([C@@H](C)O)NC(=O)CNC(=O)[C@H](CC(=O)O)NC(=O)[C@H](CCCCN)NC(=O)[C@H](Cc1ccc(O)cc1)NC3=O)C(=O)N[C@@H](C(C)C)C(=O)N[C@@H](Cc1c[nH]c3ccccc13)C(=O)N[C@@H]([C@@H](C)CC)C(=O)N1CCC[C@H]1C(=O)N2 [CyO19, Cycloviolacin O19] (cyclo(CGESCVWIPCISSVVGCSCKSKVCYKDGTLP); disulfide 1-17, 5-19, 10-24)
IC50 [1]: 2.4 ± 0.07 µM

CC(C)C[C@@H]1NC(=O)CNC(=O)[C@H](CC(N)=O)NC(=O)[C@H](CCCNC(=N)N)NC(=O)[C@H]([C@@H](C)O)NC(=O)[C@@H]2CSSC[C@@H]3NC(=O)[C@H]([C@@H](C)O)NC(=O)CNC(=O)CNC(=O)[C@H](C(C)C)NC(=O)[C@@H]4CSSC[C@H](NC(=O)[C@H]([C@@H](C)O)NC(=O)[C@H](CSSC[C@H](NC(=O)[C@H](C(C)C)NC(=O)[C@@H]5CCCN5C1=O)C(=O)NCC(=O)N[C@@H](CCC(=O)O)C(=O)N[C@@H]([C@@H](C)O)C(=O)N4)NC(=O)CNC(=O)[C@@H]1CCCN1C(=O)[C@H]([C@@H](C)O)NC(=O)[C@H](CC(N)=O)NC3=O)C(=O)N[C@@H](CO)C(=O)N[C@@H](Cc1c[nH]c3ccccc13)C(=O)N1CCC[C@H]1C(=O)N[C@@H](C(C)C)C(=O)N2 [Kalata B1]
Stability in human serum (in words) [2]: remained stable

CC(C)C[C@@H]1NC(=O)CNC(=O)[C@H](CC(N)=O)NC(=O)[C@H](CCCNC(=N)N)NC(=O)[C@H](Cc2ccccc2)NC(=O)[C@@H]2CSSC[C@@H]3NC(=O)[C@H]([C@@H](C)O)NC(=O)CNC(=O)CNC(=O)[C@H](C(C)C)NC(=O)[C@@H]4CSSC[C@H](NC(=O)[C@H](CO)NC(=O)[C@H](CSSC[C@H](NC(=O)[C@H](C(C)C)NC(=O)[C@@H]5CCCN5C1=O)C(=O)NCC(=O)N[C@@H](CCC(=O)O)C(=O)N[C@@H]([C@@H](C)O)C(=O)N4)NC(=O)CNC(=O)[C@@H]1CCCN1C(=O)[C@H]([C@@H](C)O)NC(=O)[C@H](CC(N)=O)NC3=O)C(=O)N[C@@H](CO)C(=O)N[C@@H](Cc1c[nH]c3ccccc13)C(=O)N1CCC[C@H]1C(=O)N[C@@H](C(C)C)C(=O)N2 [Vitri E]
IC50 [1]: 21.1 ± 2.9 µM

MCoTI-II: trypsin inhibitor cyclotide extracted from the seeds of Momordica cochinchinensis; three-disulfide peptide (cyclo(SGSDGGVCPKILKKCRRDSDCPGACICRGNGYCG); disulfide (positions not given here); also: three disulfides, pairing not given here; UniProt P82409 1-34, looked up)
Peptide remaining in human serum ([3]; 24 h): 100%
Time for which the peptide remained stable in human serum [3]: at least 24 h

Varv peptide A
IC50 (glioblastoma cells): 2.91 µM
Fold less TMZ required for significant cell death on co-exposure with the cyclotide (U-87 MG cells): 2 fold
